The test system of assay [1] is fear-conditioned mice. As to the kind of experiment: Cued-fear conditioning (freezing behavior, context recall). The class given is in vivo. As to the method:
Cued-fear conditioning. Experiments were performed at the same time of the day during the light phase with 3-4 months-old male and female mice (n=14-19 mice/genotype, balanced sex). The training and test sessions were video recorded. Mice were placed in a shuttle box chamber (AccuScan Instruments) for 120 sec before exposing them to a neutral conditioned stimulus (CS+) -a tone of 80 dB for 30s, presented together with an aversive unconditioned stimulus (US) -an electrical footshock of 0.3 mA/2 sec, except in the case of the PTSD-eliciting protocol, where 2.5 mA shocks were used. Training consisted of 5 consecutive trials with 90 sec intertrials (CS-). Animals remained in the chamber for 5 min more before returning them to their home cages. Twenty-four hours later, fear conditioning was tested placing the animals in a different context using the same protocol but without the unconditioned stimulus (US). […] Freezing behavior was defined by the absence of movement except of breathing and heart beating. Context-dependent extinction was tested 1 and 5 weeks later (delayed extinction). Mice were placed in the same context for 5 min to measure their freezing behavior. The latter unveils PTSD-like behaviour when it is abnormally retained.
Drug administration. Human recombinant IGF-I (Pre-Protech, USA) or vehicle (saline) were administered intracerebroventricularly (icv, 50 µg/kg/day) using Alzet osmotic minipumps for 7 days (Model 1007D), and the brain infusion kit 3 (Alzet, USA) with the following stereotaxic coordinates: AP= -0.5; ML= 1.1; DV= -2.5. Alzet pumps were implanted subcutaneously between the scapulae. In other experiments IGF-I was given intraperitoneally (ip, 1 µg/kg) to wild type mice submitted to the 2.5 mA fear-learning protocol 6 hours after fear conditioning. For hdM4Di (DREADD) experiments, clozapine-N-oxide (CNO, Tocris) was administered at 2mg/kg dissolved in saline 0.9%, and injected intraperitoneally 40 min before test sessions, and 24h and 1week after fear conditioning. 6-[4-(2-Piperidin-1-yl-ethoxy)-phenyl)]-3-pyridin-4-yl-pyrrazolo [1,5-a]-pyrimidine dihydrochloride (Compound C dihydrochloride, AMPK inhibitor; Cat. # CD0339, Chemdea NJ, USA) was administered intraperitoneally (ip, 10 mg/kg) 6 hours after fear conditioning to PTSD-like wild type mice.

Assay [2] relates to orexin neurons. As to the kind of experiment: c-fos immunostaining in orexin neurons after fear conditioning. The note with it: Firoc DREADD mice treated with CNO at week 1. The class given is in vivo. Here is the method: Immunocytochemistry. Mice were perfused transcardially under deep anesthesia (sodium pentobarbital, 50 mg/kg, i.p.) with 100 ml of saline buffer 0.9% followed by 100 ml of 4% paraformaldehyde (PFA) in 0.1N, pH 7.4 phosphate buffer (PB), 90 min after the cued-fear conditioning test, the recall context, or under basal conditions. This time point was selected as optimal to see c-Fos staining. For experiments with systemic administration of IGF-I, animals were sacrificed 2 hours after injection. Brains were removed, post-fixed overnight at 4°C in the same fixative, and cut at 50 µm thick sections on a vibratome (Leica VT 1000S). Sections were kept at 4°C, immersed in 0.1N PB with 0.02% sodium azide, until processing. Serial coronal free-floating sections were rinsed in 0.1N PB for 10 min, and a blocking solution containing 10% normal donkey serum, and 0.4% Triton X-100 in 0.1N PB (PB-T) was added and maintained at room temperature for 2 h. Thereafter, sections were incubated overnight at 4°C in the same solution with the corresponding primary antibodies (see Antibody Table). […] Images were taken with confocal microscopy (SP5, Leica Microsystems, Germany) and analyzed with Imaris software (Bitplane).
Image analysis. […] Last, spots were created for Vgat and Vglut2 with an estimated XY size of 0.5 µm, and the number of Vgat and Vglut2 spots in orexin+ cells was counted.

Assay [3] relates to orexin neurons. As to the kind of experiment: Patch-clamp recordings in acute hypothalamic slices (DREADD check). It is filed as cell-based. The settings on record: hypothalamic slices of Orexin-Cre mice transduced with pAAV-hSyn-DIO-hM4D(Gi)-mCherry; CNO 2µM in perfusate. As to the method: Viral constructs. For chemogenetic experiments using DREADD, a viral construct (pAAV-hSyn-DIO-hM4D(Gi)-mCherry (AAV5; Addgene # 44362); 8.6 x 1012 viral infective units/ml) was locally injected bilaterally to inactivate orexin-cre neurons in Orexin-Cre (littermates) and transgenic mice (Firoc). As control virus, pAAV-hSyn-DIO-mCherry (AAV5; Addgene # 50459) was used. Both viral constructions were obtained from Addgene. Clozapine N-Oxide (CNO, 2mg/kg dissolved in saline 0.9%) was administered ip and 40 min later behavior was assessed, CNO efficacy in orexin neurons was confirmed in acute slices obtained from injected mice. Slices for electrophysiological recordings were prepared from 2-months old Orexin-Cre mice, 4 weeks after injection of the DREADD-mCherry virus into the lateral hypothalamus. […] Recordings were obtained at 30-32 °C from orexin+ neurons identified using fluorescence microscopy (mCherry+) in oxygenated artificial cerebrospinal fluid containing the following: 126 mM NaCl, 26 mM NaHCO3, 2.5 mM KCI, 1.25 mM NaH2PO4, 2 mM MgSO4, 2 mM CaCl2 and 10 mM glucose (pH 7.4). […] Data were analyzed using pClamp (Axon Instruments).
A general note: The patch-clamp technique gives a direct electrical read-out from membranes.

Regarding `c1cc(-c2cnn3cc(-c4ccc(OCCN5CCCCC5)cc4)cnc23)ccn1` [Compound C], the “fear behavior after the PTSD protocol” value in assay [1] (wild type mice, 2.5 mA shocks, Compound C ip, 10 mg/kg, 6 hours after fear conditioning) was “normalized fear behavior”.
As for `C[N+]1([O-])CCN(C2=Nc3cc(Cl)ccc3Nc3ccccc32)CC1` [CNO, clozapine-N-oxide], in assay [1] (Firoc DREADD mice treated with CNO 1 week after fear learning), the “freezing behavior in the fifth week after fear learning” value was “normal freezing behavior”. In addition, the “context-dependent fear responses (context recall) 1 week later” value in assay [1] (Firoc mice injected with hM4Di virus, after CNO administration) is on record as “normalized fear responses”. For the same compound, in assay [1] (Firoc mice with hM4Di DREADD virus in lateral hypothalamus, CNO 2mg/kg ip 40 min before testing), the “fear responses after fear conditioning” value is reported as “normalized their fear responses”. In assay [1] (orexin-Cre mice injected with hM4Di virus, CNO administration), the “increased freezing after 2.5 mA shock protocol” value was “ameliorated”. In addition, in assay [2], the “c-fos expression in orexin neurons 5 weeks after fear conditioning” value is listed as “normal”. Further, in assay [3], the “inhibition of orexin neurons (action potential frequency, input resistance)” value is given as “inhibition of orexin neurons was confirmed”.
